Measured values taken from PubChem BioAssay AID196 (DTP/NCI, 2004).
Where “and” joins values, the source holds several entries; their conditions need not be identical. Equal entries are not always repeated. Inconclusive results and toxic doses are left out. Rule for the calls: active = survival T/C of 150% or more; inactive = T/C below 125% in these data. *1 amine or outer side, *2 acyl side, *3 side chain or, on linkers, in order; H or OH if unused. Where a SMILES comes first, the peptide text is derived from it. Bridges are numbered along the chain shown (N, C = ends). Roman numbers before positions name the chains, in order. [ ]: non-standard residue; d: D form. Actinocin(9to1) = Cc1c2oc3c(C)ccc(C(=O)[*:1])c3nc-2c(C(=O)[*:2])c(N)c1=O; aThr = C[C@H](O)[C@H](N)C(=O)O; NMeV = CN[C@H](C(=O)O)C(C)C; Sar = CNCC(=O)O

System: BDF1 mice, intracerebral B16 melanoma, median survival T/C
Test: NCI In Vivo Anticancer Drug Screen. Data for tumor model B16 Melanoma (intracerebral) in B6D2F1 (BDF1) mice
Conditions: endpoint: median survival time, higher = longer survival
Method: The antitumor activity of compounds was measured in mice bearing transplantable tumors. Survival or tumor size were measured and the results are expressed as the measurement made in the treated group (T) divided by the measurement made in the vehicle treated control group (C). The tumor model used in this assay is B16 Melanoma (intracerebral) in B6D2F1 (BDF1) mice

[1] = dose: 0.75 mg/kg/injection, schedule: Q01DX009 (ip), vehicle: saline
[2] = dose: 1.5 mg/kg/injection, schedule: Q01DX009 (ip), vehicle: saline
[3] = dose: 3.0 mg/kg/injection, schedule: Q01DX009 (ip), vehicle: saline
[4] = dose: 32.0 mg/kg/injection, schedule: Q01DX005 (ip), vehicle: Klucel (hydroxypropylcellulose) (HPC)
[5] = dose: 64.0 mg/kg/injection, schedule: Q01DX005 (ip), vehicle: Klucel (hydroxypropylcellulose) (HPC)
[6] = dose: 128.0 mg/kg/injection, schedule: Q01DX005 (ip), vehicle: Klucel (hydroxypropylcellulose) (HPC)
[7] = dose: 256.0 mg/kg/injection, schedule: Q01DX005 (ip), vehicle: Klucel (hydroxypropylcellulose) (HPC)
[8] = dose: 0.5 mg/kg/injection, schedule: Q01DX009 (ip), vehicle: saline
[9] = dose: 1.0 mg/kg/injection, schedule: Q01DX009 (ip), vehicle: saline
[10] = dose: 2.0 mg/kg/injection, schedule: Q01DX009 (ip), vehicle: saline
[11] = dose: 25.0 mg/kg/injection, schedule: Q01DX009 (ip), vehicle: saline
[12] = dose: 50.0 mg/kg/injection, schedule: Q01DX009 (ip), vehicle: saline
[13] = dose: 100.0 mg/kg/injection, schedule: Q01DX009 (ip), vehicle: saline
[14] = dose: 6.0 mg/kg/injection, schedule: Q01DX009 (ip), vehicle: saline
[15] = dose: 0.25 mg/kg/injection, schedule: Q01DX009 (ip), vehicle: saline
[16] = dose: 6.25 mg/kg/injection, schedule: Q01DX009 (ip), vehicle: other
[17] = dose: 12.5 mg/kg/injection, schedule: Q01DX009 (ip), vehicle: other
[18] = dose: 25.0 mg/kg/injection, schedule: Q01DX009 (ip), vehicle: other
[19] = dose: 100.0 mg/kg/injection, schedule: Q01DX009 (ip), vehicle: other

Measured: T/C

CN(Cc1cnc2nc(N)nc(N)c2n1)c1ccc(C(=O)N[C@@H](CCC(=O)O)C(=O)O)cc1
inactive: dose: 0.38 mg/kg/injection, schedule: Q01DX009 (ip), vehicle: saline 108 % of control | dose: 0.5 mg/kg/injection, schedule: Q01DX009 (ip), vehicle: sodium bicarbonate 104 % of control | [1] 100 % of control and 104 % of control | dose: 1.0 mg/kg/injection, schedule: Q01DX009 (ip), vehicle: sodium bicarbonate 100 % of control | [2] 95 % of control and 100 % of control | dose: 2.0 mg/kg/injection, schedule: Q01DX009 (ip), vehicle: sodium bicarbonate 95 % of control | [3] 112 % of control | dose: 4.0 mg/kg/injection, schedule: Q01DX009 (ip), vehicle: sodium bicarbonate 100 % of control

CC(C)=CCC1=C(O)c2ccccc2C(=O)C1=O
inactive: [4] 98 % of control | [5] 90 % of control and 96 % of control | [6] 87 % of control and 105 % of control | [7] 90 % of control and 96 % of control

CCCCCC(=O)O[C@]1(C(C)=O)CC[C@H]2[C@@H]3CCC4=CC(=O)CC[C@]4(C)[C@H]3CC[C@@]21C
inactive: dose: 8.0 mg/kg/injection, schedule: Q01DX009 (ip), vehicle: Klucel (hydroxypropylcellulose) (HPC) 100 % of control | dose: 16.0 mg/kg/injection, schedule: Q01DX009 (ip), vehicle: Klucel (hydroxypropylcellulose) (HPC) 101 % of control | dose: 32.0 mg/kg/injection, schedule: Q01DX009 (ip), vehicle: Klucel (hydroxypropylcellulose) (HPC) 100 % of control | dose: 64.0 mg/kg/injection, schedule: Q01DX009 (ip), vehicle: Klucel (hydroxypropylcellulose) (HPC) 100 % of control | dose: 128.0 mg/kg/injection, schedule: Q01DX009 (ip), vehicle: Klucel (hydroxypropylcellulose) (HPC) 98 % of control | dose: 256.0 mg/kg/injection, schedule: Q01DX009 (ip), vehicle: Klucel (hydroxypropylcellulose) (HPC) 94 % of control | dose: 512.0 mg/kg/injection, schedule: Q01DX009 (ip), vehicle: Klucel (hydroxypropylcellulose) (HPC) 101 % of control

O=NN(CCCl)C(=O)NCCCl
inactive: [8] 104 % of control and 112 % of control | [9] 109 % of control and 113 % of control | dose: 1.87 mg/kg/injection, schedule: Q01DX009 (ip), vehicle: saline 120 % of control | [10] 111 % of control and 112 % of control | dose: 2.5 mg/kg/injection, schedule: Q04DX003 (ip), vehicle: saline sonified 108 % of control | dose: 3.8 mg/kg/injection, schedule: Q01DX009 (ip), vehicle: saline 108 % of control | dose: 15.0 mg/kg/injection, schedule: Q01DX009 (ip), vehicle: saline 91 % of control and 108 % of control
active: dose: 5.0 mg/kg/injection, schedule: Q01DX009 (ip), vehicle: other 158 % of control | dose: 7.5 mg/kg/injection, schedule: Q01DX009 (ip), vehicle: saline 150 % of control | dose: 8.0 mg/kg/injection, schedule: Q01DX009 (ip), vehicle: saline 172 % of control and 188 % of control | dose: 10.0 mg/kg/injection, schedule: Q04DX003 (ip), vehicle: saline sonified 175 % of control

OC(CBr)C(O)C(O)C(O)CBr (stereo not given)
inactive: [11] 92 % of control | [12] 100 % of control and 108 % of control (2×) | [13] 116 % of control and 117 % of control and 100 % of control | dose: 200.0 mg/kg/injection, schedule: Q01DX009 (ip), vehicle: saline 117 % of control and 104 % of control | dose: 400.0 mg/kg/injection, schedule: Q01DX009 (ip), vehicle: saline 120 % of control

C[C@@H]1C[C@H]2[C@@H]3CCC4=CC(=O)C=C[C@]4(C)[C@@]3(F)[C@@H](O)C[C@]2(C)[C@@]1(O)C(=O)CO
inactive: [1] 108 % of control | [2] 104 % of control | [3] 118 % of control and 104 % of control | [14] 104 % of control and 112 % of control | dose: 12.0 mg/kg/injection, schedule: Q01DX009 (ip), vehicle: saline 122 % of control

C#CCN(C)/N=N/c1nc[nH]c1C(N)=O
inactive: dose: 16.0 mg/kg/injection, schedule: Q01DX005 (ip), vehicle: saline with Tween-80 107 % of control | dose: 32.0 mg/kg/injection, schedule: Q01DX005 (ip), vehicle: saline with Tween-80 104 % of control | dose: 64.0 mg/kg/injection, schedule: Q01DX005 (ip), vehicle: saline with Tween-80 110 % of control | dose: 128.0 mg/kg/injection, schedule: Q01DX005 (ip), vehicle: saline with Tween-80 109 % of control | dose: 256.0 mg/kg/injection, schedule: Q01DX005 (ip), vehicle: saline with Tween-80 100 % of control

OC(C1CO1)C(O)C1CO1 (stereo not given)
inactive: dose: 0.12 mg/kg/injection, schedule: Q01DX009 (ip), vehicle: saline 100 % of control and 101 % of control | [15] 122 % of control and 110 % of control | [8] 94 % of control and 112 % of control | [9] 120 % of control and 103 % of control | [10] 123 % of control

CC(=O)OC1COC(NC(=O)N(CCCl)N=O)C(OC(C)=O)C1OC(C)=O (stereo not given)
inactive: dose: 0.18 mg/kg/injection, schedule: Q01DX009 (ip), vehicle: saline 104 % of control | dose: 0.37 mg/kg/injection, schedule: Q01DX009 (ip), vehicle: saline 104 % of control | [1] 113 % of control | [2] 113 % of control

CN(C)/N=N/c1nc[nH]c1C(N)=O
inactive: dose: 12.5 mg/kg/injection, schedule: Q01DX009 (ip), vehicle: saline 116 % of control and 113 % of control | dose: 25.0 mg/kg/injection, schedule: Q01DX009 (ip), vehicle: saline with Tween-80 105 % of control | [11] 116 % of control and 122 % of control | dose: 50.0 mg/kg/injection, schedule: Q01DX009 (ip), vehicle: saline with Tween-80 111 % of control | [12] 109 % of control | dose: 100.0 mg/kg/injection, schedule: Q01DX009 (ip), vehicle: saline with Tween-80 117 % of control | [13] 122 % of control | dose: 200.0 mg/kg/injection, schedule: Q01DX009 (ip), vehicle: saline with Tween-80 112 % of control

NC(CSC(c1ccccc1)(c1ccccc1)c1ccccc1)C(=O)O (stereo not given)
inactive: [4] 105 % of control and 115 % of control | [5] 105 % of control and 112 % of control | [6] 117 % of control and 119 % of control | [7] 124 % of control and 107 % of control

CN(C)N=Nc1ccc2c(c1)N(C)c1ccc(Cl)cc1S2
inactive: [16] 97 % of control | [17] 101 % of control | [18] 102 % of control | [19] 112 % of control

CO[C@H](C(=O)[C@@H](O)[C@@H](C)O)[C@@H]1Cc2cc3cc(OC4CC(OC5CC(O)C(O)C(C)O5)C(O)C(C)O4)c(C)c(O)c3c(O)c2C(=O)[C@H]1OC1CC(OC2CC(OC3CC(C)(O)C(O)C(C)O3)C(O)C(C)O2)C(O)C(C)O1 (stereo not given in full)
inactive: dose: 0.13 mg/kg/injection, schedule: Q01DX009 (ip), vehicle: saline 91 % of control and 95 % of control | [15] 109 % of control and 112 % of control | [8] 91 % of control and 100 % of control | [9] 87 % of control and 90 % of control

Cc1c2oc3c(C)ccc(C(=O)N[C@@H]4C(=O)N[C@H](C(C)C)C(=O)N5CCC[C@H]5C(=O)N(C)CC(=O)N(C)[C@@H](C(C)C)C(=O)O[C@H]4C)c3nc-2c(C(=O)N[C@@H]2C(=O)N[C@H](C(C)C)C(=O)N3CCC[C@H]3C(=O)N(C)CC(=O)N(C)[C@@H](C(C)C)C(=O)O[C@H]2C)c(N)c1=O (I: [aThr][dV]P[Sar][NMeV] / II: [aThr][dV]P[Sar][NMeV]; ester I:1-I:C, II:1-II:C; linker I:N-II:N via Actinocin(9to1))
inactive: dose: 0.02 mg/kg/injection, schedule: Q01DX009 (ip), vehicle: water 118 % of control | dose: 0.05 mg/kg/injection, schedule: Q01DX009 (ip), vehicle: water 109 % of control

COC(COC(=O)N1CCN(C=O)CC1)C1=C(N2CC2)C(=O)C(C)=C(N2CC2)C1=O (stereo not given)
inactive: [1] 103 % of control | [2] 105 % of control | [3] 114 % of control | [14] 86 % of control

CN(C)N=Nc1cccc2c1N(C)c1ccc(F)cc1S2
inactive: [16] 109 % of control | [17] 110 % of control | [18] 108 % of control | dose: 50.0 mg/kg/injection, schedule: Q01DX009 (ip), vehicle: other 115 % of control | [19] 112 % of control
